This note sets out measurements from ChEMBL document CHEMBL4483862, “Open-source discovery of chemical leads for next-generation chemoprotective antimalarials” (2018).

In the assay the test system is Plasmodium berghei. Nature of the assay: Luciferase/luciferin-expressing antifolate-resistant parasites were used to infect a culture of HepG2 cells that were pre-incubated with compounds. Infected hepatocytes emit light due to the luciferase reaction. Assay results are presented as the percent inhibition of light emission compared to control. […]. To be noted: sporozoite; for IC90: read-out: LUCIFERASE INFECTION ASSAY - IC90. The assay is classed as functional.

[1] abbreviates: read-out: LUCIFERASE INFECTION ASSAY - IC50.

On to `CN(C)c1ccc(C(c2ccc(N(C)C)cc2)c2ccc(N(C)C)c(C#N)c2F)cc1`, for which the IC90 – broadly, the concentration needed for an effect of 90% – was more than 7.92 µM. Further, the IC50 (in general, the point on the concentration scale where inhibition reaches its midpoint) (FFLUC_HILL_SLOPE 2.97, FFLUC_R_SQUARED 0.397, HEPG2TOX_HILL_SLOPE 0.327, HEPG2TOX_R_SQUARED 0.744, PBLUC_HILL_SLOPE 0.914, PBLUC_R_SQUARED 0.465, read-out: LUCIFERASE INFECTION ASSAY - IC50) is 6.07 µM.

For `COc1ccccc1N1CCN(c2nc(=O)c3c([nH]2)CCC3)CC1`, the IC90 was 1.26 µM. The IC50 (FFLUC_HILL_SLOPE 1.43, FFLUC_R_SQUARED 0.67, PBLUC_HILL_SLOPE 2.78, PBLUC_R_SQUARED 0.645, read-out: LUCIFERASE INFECTION ASSAY - IC50) was found to be 0.572 µM.

Regarding `Cc1ccc(S(=O)(=O)CCN2C(=O)CSC2=O)cc1`, the IC90 is more than 11 µM. Moreover, the IC50 under setting [1] is more than 11 µM.

For `COc1ccc(-c2ccc3c(c2)COC2(CCN(C(=O)c4ccc(F)cc4F)CC2)O3)cc1OC`, the IC90 was more than 6.85 µM. In addition, under setting [1], the IC50 was more than 6.85 µM.

For the compound `O=C(NCCCn1cnc2ccccc21)c1ccc(Oc2ccc(F)cc2)cc1`, the IC90 was more than 10 µM. Besides, where the note is “HEPG2TOX_HILL_SLOPE 1.27, HEPG2TOX_R_SQUARED 0.899, PBLUC_HILL_SLOPE 1.4, PBLUC_R_SQUARED 0.524, read-out: LUCIFERASE INFECTION ASSAY - IC50”, the IC50 was determined as 5.3 µM.

In the case of `COC(=O)c1scc(S(=O)(=O)Cc2ccco2)c1NN=C(C#N)C#N`, the IC90 is more than 8.72 µM. In addition, the IC50 under setting [1] was more than 8.72 µM.

For the compound `Cc1noc(C)c1S(=O)(=O)N(Cc1ccc(C(=O)NC2CC2)cc1)C1CC1`, the IC90 is 3.5 µM. Under “PBLUC_HILL_SLOPE 0.781, PBLUC_R_SQUARED 0.696, read-out: LUCIFERASE INFECTION ASSAY - IC50”, the IC50 was 0.21 µM.

With `C=CCN(c1ccc(F)cc1)S(=O)(=O)c1cc(C(=O)OCC(=O)C23CC4CC(CC(C4)C2)C3)ccc1Cl`, the IC90 is more than 10 µM. The IC50 (FFLUC_HILL_SLOPE 7.93, FFLUC_R_SQUARED 0.0643, HEPG2TOX_HILL_SLOPE 7, HEPG2TOX_R_SQUARED 0.225, PBLUC_HILL_SLOPE 4.62, PBLUC_R_SQUARED 0.186, read-out: LUCIFERASE INFECTION ASSAY - IC50) is 6.94 µM.

For the compound `O=C(Nc1nc(-c2ccc(Cl)cc2Cl)cs1)C1CC(=O)N(CCc2ccccc2)C1` (stereo unspecified), the IC90 is more than 10 µM. For the same compound, the IC50 (FFLUC_HILL_SLOPE 45.5, FFLUC_R_SQUARED 0.597, PBLUC_HILL_SLOPE 12.9, PBLUC_R_SQUARED 0.652, read-out: LUCIFERASE INFECTION ASSAY - IC50) amounted to 9.1 µM.

As to `CCc1ccc(Cl)c(CC)c1NC(=O)Cc1c(C)nn(CC(C)C)c1C`, the IC90 stood at 4.06 µM. Moreover, the IC50 (PBLUC_HILL_SLOPE 11.4, PBLUC_R_SQUARED 0.518, read-out: LUCIFERASE INFECTION ASSAY - IC50) was 3.35 µM.

On to `CC(C)(C)c1ccc(-c2nnc(SCC(=O)N(Cc3ccccc3)c3nc(-c4ccc(Cl)cc4)cs3)n2-c2ccc(Br)cc2)cc1`, for which the IC90 was more than 10 µM. Also, the IC50 under setting [1] is more than 10 µM.

Take `O=C1C=CC(=O)N1c1cccc(Cl)c1`: the IC90 was more than 15.9 µM. Also, the IC50 under setting [1] was more than 15.9 µM.

As for `N=C(Cc1ccc([N+](=O)[O-])cc1)NOC(=O)c1cccs1`, the IC90 is more than 10.8 µM. Besides, the IC50 under setting [1] is more than 10.8 µM.

With `Cc1ccc(S(=O)(=O)N2Cc3ccccc3C(C)CC23CCCCC3)cc1` (stereo unspecified), the IC90 is more than 8.6 µM. For the setting “PBLUC_HILL_SLOPE 1.1, PBLUC_R_SQUARED 0.205, read-out: LUCIFERASE INFECTION ASSAY - IC50”, the IC50 is more than 8.6 µM.

With `OCCNCCNCc1c(OCc2ccc(F)cc2)ccc2ccccc12`, the concentration for an effect of 90% (IC90) was more than 8.96 µM. Further, under setting [1], the IC50 is more than 8.96 µM.

Consider `Clc1ccc(/N=C/c2c(Sc3ccc(Cl)cc3)nc3sccn23)cc1`, for which the IC90 was 5.29 µM. Further, the IC50 (FFLUC_HILL_SLOPE 12.3, FFLUC_R_SQUARED 0.518, HEPG2TOX_HILL_SLOPE 2.77, HEPG2TOX_R_SQUARED 0.964, PBLUC_HILL_SLOPE 5.31, PBLUC_R_SQUARED 0.509, read-out: LUCIFERASE INFECTION ASSAY - IC50) came out at 3.5 µM.

In the case of `COc1ccc(Cl)c(Nc2nc(-c3c(-c4ccc(Cl)cc4Cl)noc3C)cs2)c1`, the IC90 is more than 7.07 µM. Moreover, where the note is “HEPG2TOX_HILL_SLOPE 6.31, HEPG2TOX_R_SQUARED 0.301, PBLUC_HILL_SLOPE 9.51, PBLUC_R_SQUARED 0.295, read-out: LUCIFERASE INFECTION ASSAY - IC50”, the IC50 was determined as 6.34 µM.

Consider `CC(C)c1ccc(-c2cnc3sc(NCc4cccnc4)nn23)cc1`, for which the IC90 was more than 9.44 µM. Further, the IC50 under setting [1] was more than 9.44 µM.

With `Cc1c(C(=O)Nc2ccc(N3CCOCC3)cc2N2CCOCC2)oc2ccc(F)cc12`, the IC90 is more than 10 µM. For the same compound, the IC50 under setting [1] is more than 10 µM.

On to `CN1CCN(c2ccc(-c3cn4c(-c5cccc(O)c5)cnc4cn3)cc2)CC1`, for which the IC90 was more than 8.56 µM. The IC50 (HEPG2TOX_HILL_SLOPE 8.09, HEPG2TOX_R_SQUARED 0.0909, PBLUC_HILL_SLOPE 1.65, PBLUC_R_SQUARED 0.318, read-out: LUCIFERASE INFECTION ASSAY - IC50) is 7.19 µM.

For the compound `CCC(C)NC(=O)c1c(NC(=O)c2ccccc2Cl)nc2ccc(C)cn12` (stereo unspecified), the IC90 was 3.78 µM. In addition, where the note is “HEPG2TOX_HILL_SLOPE 2.82, HEPG2TOX_R_SQUARED 0.923, PBLUC_HILL_SLOPE 8.99, PBLUC_R_SQUARED 0.855, read-out: LUCIFERASE INFECTION ASSAY - IC50”, the IC50 came to 2.96 µM.

With `O=C(OCc1ccc(Cl)cc1)c1cnc(NNc2ncc(C(=O)OCc3ccc(Cl)cc3)c(C(F)(F)F)n2)nc1C(F)(F)F`, the IC90 was determined as 0.682 µM. Besides, the IC50 (FFLUC_HILL_SLOPE 1.7, FFLUC_R_SQUARED 0.396, HEPG2TOX_HILL_SLOPE 1.81, HEPG2TOX_R_SQUARED 0.829, PBLUC_HILL_SLOPE 10.6, PBLUC_R_SQUARED 0.55, read-out: LUCIFERASE INFECTION ASSAY - IC50) turned out to be 0.554 µM.

As to `N#C/C(=N\Nc1ccc(Cl)cc1Cl)C(=O)c1ccc(Cl)cc1`, the IC90 stood at 1.16 µM. Besides, the IC50 (HEPG2TOX_HILL_SLOPE 1.3, HEPG2TOX_R_SQUARED 0.915, PBLUC_HILL_SLOPE 13.3, PBLUC_R_SQUARED 0.668, read-out: LUCIFERASE INFECTION ASSAY - IC50) amounted to 0.987 µM.

Consider `Nc1c(NC2CCCCC2)cc(NCCO)c2c1C(=O)c1ccccc1C2=O`, for which the IC90 is more than 8.7 µM. Further, the IC50 (PBLUC_HILL_SLOPE 3.41, PBLUC_R_SQUARED 0.438, read-out: LUCIFERASE INFECTION ASSAY - IC50) is more than 8.7 µM.

In the case of `Cc1cc2cc(Nc3ccc(S(=O)(=O)NC(C)(C)C)cc3[N+](=O)[O-])ccc2[nH]1`, the IC90 is more than 10 µM. Further, the IC50 (HEPG2TOX_HILL_SLOPE 6.66, HEPG2TOX_R_SQUARED 0.674, PBLUC_HILL_SLOPE 2.21, PBLUC_R_SQUARED 0.655, read-out: LUCIFERASE INFECTION ASSAY - IC50) stood at 4.89 µM.

As to `Nc1nc(-c2c[nH]c3ccccc23)c(-c2ccccc2)s1`, the IC90 was more than 10 µM. Besides, the IC50 (PBLUC_HILL_SLOPE 2.51, PBLUC_R_SQUARED 0.619, read-out: LUCIFERASE INFECTION ASSAY - IC50) came out at 7.04 µM.

With `FC(F)(F)c1cccc(-c2cnc3ccc(-c4cccs4)nn23)c1`, the IC90 is more than 10 µM. The IC50 under setting [1] is more than 10 µM.

For the compound `COc1ccc2cc(C(C)C(=O)N/N=C/c3ccccc3O)ccc2c1` (stereo unspecified), the concentration for an effect of 90% (IC90) was more than 9.47 µM. Besides, the IC50 (HEPG2TOX_HILL_SLOPE 3.47, HEPG2TOX_R_SQUARED 0.909, PBLUC_HILL_SLOPE 4.89, PBLUC_R_SQUARED 0.506, read-out: LUCIFERASE INFECTION ASSAY - IC50) stood at 6.69 µM.

As to `Cc1cccc(OCc2nnnn2-c2ccc(Br)cc2)c1`, the IC90 is more than 9.56 µM. In addition, the IC50 under setting [1] was more than 9.56 µM.

For the compound `Cc1cc(C)nc(SCC(=O)N2CCN(C(=O)c3ccco3)CC2)n1`, the IC90 was determined as 3.74 µM. Moreover, the IC50 (PBLUC_HILL_SLOPE 11.5, PBLUC_R_SQUARED 0.424, read-out: LUCIFERASE INFECTION ASSAY - IC50) was 3.09 µM.

In the case of `C/C(=N\Nc1nc2ccccc2[nH]1)c1ccc2c(c1)OCO2`, the IC90 stood at 4.99 µM. Also, under setting [1], the IC50 worked out at 4.04 µM.

Turning to `COc1ccc(-c2nonc2NC(=O)c2sc3cc(C)ccc3c2Cl)cc1`, the IC90 was 6.5 µM. Besides, the IC50 (HEPG2TOX_HILL_SLOPE 8.9, HEPG2TOX_R_SQUARED 0.644, PBLUC_HILL_SLOPE 6.34, PBLUC_R_SQUARED 0.0844, read-out: LUCIFERASE INFECTION ASSAY - IC50) was determined as 4.6 µM.

On to `Cc1cccc(Nc2ccccc2C(=O)OCC(=O)N2CCNC2=O)c1C`, for which the IC90 was found to be 7.08 µM. In addition, the IC50 (PBLUC_HILL_SLOPE 113, PBLUC_R_SQUARED 0.339, read-out: LUCIFERASE INFECTION ASSAY - IC50) was 6.94 µM.

For `FC(F)(F)c1cccc(NC(=S)NC2CC3C=CC2C3)c1` (stereo unspecified), the IC90 is more than 10.6 µM. In addition, under “PBLUC_HILL_SLOPE 0.542, PBLUC_R_SQUARED 0.315, read-out: LUCIFERASE INFECTION ASSAY - IC50”, the IC50 was 4.71 µM.

Regarding `Oc1ccc(Br)c(/C=C/c2ccc3cccc(O)c3n2)c1`, the IC90 was more than 9.64 µM. Besides, the IC50 (HEPG2TOX_HILL_SLOPE 7.26, HEPG2TOX_R_SQUARED 0.426, read-out: LUCIFERASE INFECTION ASSAY - IC50) was more than 9.64 µM.

On to `Cc1ccccc1OCCOC(=O)Nc1ccccc1`, for which the IC90 was more than 12.2 µM. In addition, under setting [1], the IC50 is more than 12.2 µM.

Turning to `Nc1n[nH]c(Nc2cccc(Cl)c2Cl)c1C(=O)c1cccs1`, the IC90 was found to be 3.45 µM. Moreover, for the setting “PBLUC_HILL_SLOPE 0.162, PBLUC_R_SQUARED 0.284, read-out: LUCIFERASE INFECTION ASSAY - IC50”, the IC50 was less than 0.0128 µM.

For the compound `Cc1sc2nc(CN3CCOCC3)nc(NCCc3c[nH]c4ccccc34)c2c1C`, the IC90 was more than 10 µM. Further, under setting [1], the IC50 is more than 10 µM.
